Measurements as given in patent publication US12458021B2, “Microbiocidal derivatives” (SYNGENTA CROP PROTECTION AG, priority 2019, dated 2025).

How the values were obtained:
[1] = system: Mycosphaerella arachidis (Cercospora arachidicola); experiment: Mycosphaerella arachidis (Cercospora arachidicola) / liquid culture (early leaf spot); assay type: cell-based; settings: PDB potato dextrose broth, 24° C., 4-5 days after application, read-out: control of Mycosphaerella arachidis (inhibition of growth, photometric)
In short: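 Conidia from cryogenic storage suspended in potato dextrose broth and added to compound in DMSO. Incubation at 24° C; growth inhibition read photometrically 4-5 days after application.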

Alternaria solani = Alternaria solani / tomato / leaf disc (early blight); assay type: in vivo; settings: foliar, tomato leaf disks cv. Baby, inoculated 2 days after application, assessed 5-7 days after application, read-out: control of Alternaria solani (percent disease control compared to untreated)
Procedure: Example B1: Alternaria solani/Tomato/Leaf Disc (Early Blight) Tomato leaf disks cv. Baby are placed on agar in multiwell plates (24-well format) and sprayed with the formulated test compound diluted in water. The leaf disks are inoculated with a spore suspension of the fungus 2 days after application. The inoculated leaf disks are incubated at 23° C./21° C. […] […]-185.

[2] = system: Blumeria graminis f. sp. tritici (Erysiphe graminis f. sp. tritici); experiment: Blumeria graminis f. sp. tritici / wheat / leaf disc preventative (powdery mildew on wheat); assay type: in vivo; settings: foliar, wheat leaf segments cv. Kanzler, inoculated 1 day after application, assessed 6-8 days after application, read-out: control of Blumeria graminis f. sp. tritici (percent disease control compared to untreated)
Description: Example B4: Blumeria graminis f. sp. tritici (Erysiphe graminis f. sp. tritici)/Wheat/Leaf Disc Preventative (Powdery Mildew on Wheat) Wheat leaf segments cv. Kanzler are placed on agar in a multiwell plate (24-well format) and sprayed with the formulated test compound diluted in water. The leaf disks are inoculated by shaking powdery mildew infected plants above the test plates 1 day after application. […] […]-192.

[3] = system: Monographella nivalis (Microdochium nivale); experiment: Monographella nivalis (Microdochium nivale) / liquid culture (foot rot cereals); assay type: cell-based; settings: PDB potato dextrose broth, 24° C., 4-5 days after application, read-out: control of Monographella nivalis (inhibition of growth, photometric)
In short: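 Growth inhibition measured by photometry 4-5 days post-application at 24° C. Compound was dispensed as DMSO solution, then PDB broth containing conidia from cryogenic storage was added.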

[4] = system: Puccinia recondita f. sp. tritici; experiment: Puccinia recondita f. sp. tritici / wheat / leaf disc preventative (brown rust); assay type: in vivo; settings: foliar, wheat leaf segments cv. Kanzler, inoculated 1 day after application, assessed 7-9 days after application, read-out: control of Puccinia recondita f. sp. tritici, preventative (percent disease control compared to untreated)
In short: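 Wheat leaf segments (cv. Kanzler) on agar were sprayed with formulated compound, then inoculated with spores 1 day later. Segments were incubated at 19 °C, 75% rh with 12 h light/dark. Percent disease control versus untreated was scored 7–9 days after application.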

Pyrenophora teres = Pyrenophora teres / barley / leaf disc preventative (net blotch); assay type: in vivo; settings: foliar, barley leaf segments cv. Hasso, inoculated 2 days after application, assessed 5-7 days after application, read-out: control of Pyrenophora teres (disease control compared to untreated)
In short: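 Barley cv. Hasso leaf discs on agar were sprayed with diluted formulated compound, then inoculated with spore suspension 2 days later. Incubation at 20 °C, 65% rh, 12 h light/dark; disease control versus untreated assessed 5-7 days after application.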

[5] = system: Puccinia recondita f. sp. tritici; experiment: Puccinia recondita f. sp. tritici / wheat / leaf disc curative (brown rust); assay type: in vivo; settings: foliar, wheat leaf segments cv. Kanzler, compound applied 1 day after inoculation, assessed 6-8 days after application, read-out: control of Puccinia recondita f. sp. tritici, curative (percent disease control compared to untreated)
Procedure: Example B10: Puccinia recondita f. sp. tritici/Wheat/Leaf Disc Curative (Brown Rust) Wheat leaf segments cv. Kanzler are placed on agar in multiwell plates (24-well format). The leaf segments are inoculated with a spore suspension of the fungus. Plates are stored in darkness at 19° C. and 75% rh. The formulated test compound diluted in water is applied 1 day after inoculation. […] […]-185.

[6] = system: Phaeosphaeria nodorum (Septoria nodorum); experiment: Phaeosphaeria nodorum (Septoria nodorum) / wheat / leaf disc preventative (glume blotch); assay type: in vivo; settings: Parastagonospora nodorum, foliar, wheat leaf segments cv. Kanzler, inoculated 2 days after application, assessed 5-7 days after application, read-out: control of Phaeosphaeria nodorum (percent disease control compared to untreated)
In short: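 Wheat cv. Kanzler leaf discs on agar were sprayed with formulated compound diluted in water and inoculated with spores 2 days later. Discs were kept at 20° C, 75% rh, 12 h light/dark; percent disease control versus untreated was scored 5-7 days after application.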

[7] = system: Botryotinia fuckeliana (Botrytis cinerea); experiment: Botryotinia fuckeliana (Botrytis cinerea) / liquid culture (gray mould); assay type: cell-based; settings: Vogels broth, 24° C., 3-4 days after application, read-out: control of Botryotinia fuckeliana (inhibition of growth, photometric)
In short: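 Botrytis cinerea conidia in Vogels broth were added to compound supplied as DMSO solution. Plates were incubated at 24 °C, and growth inhibition was read photometrically 3-4 days after application.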

[8] = system: Glomerella lagenarium (Colletotrichum lagenarium); experiment: Glomerella lagenarium (Colletotrichum lagenarium) / liquid culture (anthracnose); assay type: cell-based; settings: Colletotrichum orbiculare, PDB potato dextrose broth, 24° C., 3-4 days after application, read-out: control of Glomerella lagenarium (inhibition of growth, photometric)
In short: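 Fungal growth inhibition measured photometrically 3-4 days post-application at 24° C. Spores were mixed directly into potato dextrose broth and dispensed onto test compound supplied in DMSO.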

[9] = system: Mycosphaerella graminicola (Septoria tritici); experiment: Mycosphaerella graminicola (Septoria tritici) / liquid culture (Septoria blotch); assay type: cell-based; settings: Zymoseptoria tritici, PDB potato dextrose broth, 24° C., 4-5 days after application, read-out: control of Mycosphaerella graminicola (inhibition of growth, photometric)
In short: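 Fungal growth inhibition was read photometrically 4-5 days after application. Compound was dosed from a DMSO solution into liquid cultures of spores in potato dextrose broth, incubated at 24° C.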

[10] = system: Magnaporthe grisea (Pyricularia oryzae); experiment: whole plant or invertebrate; assay type: in vivo; settings: foliar, read-out: control of Magnaporthe grisea (percent disease control compared to untreated)
Sclerotinia sclerotiorum = Sclerotinia sclerotiorum / liquid culture (cottony rot); assay type: cell-based; settings: PDB potato dextrose broth, mycelia fragments, 24° C., 3-4 days after application, read-out: control of Sclerotinia sclerotiorum (inhibition of growth, photometric)
Procedure: Example B14: Sclerotinia sclerotiorum/Liquid Culture (Cottony Rot) Mycelia fragments of a newly grown liquid culture of the fungus are directly mixed into nutrient broth (PDB potato dextrose broth). After placing a (DMSO) solution of test compound into a microtiter plate (96-well format) the nutrient broth containing the fungal material is added. The test plates are incubated at 24° C. and the inhibition of growth is determined photometrically 3-4 days after application.

Fusarium culmorum = experiment: microbe, parasite or virus in culture; assay type: cell-based; settings: read-out: control of Fusarium culmorum (inhibition of growth, photometric)

COc1ccc(Nc2cc(F)cc(F)c2)nc1C(=O)NC1(C)CCC1 [Compound P-118, 6-(3,5-difluoroanilino)-3-methoxy-N-(1-methylcyclobutyl)pyridine-2-carboxamide]
≥ 80%: inhibition at 20 ppm [1] | pest or weed control at 200 ppm (Alternaria solani) | pest or weed control at 200 ppm [2] | inhibition at 20 ppm [3] | pest or weed control at 200 ppm [4] | pest or weed control at 200 ppm (Pyrenophora teres) | pest or weed control at 200 ppm [5] | pest or weed control at 200 ppm [6] | inhibition at 20 ppm [7] | inhibition at 20 ppm [8] | inhibition at 20 ppm [9] | pest or weed control at 200 ppm [10]

COc1ccc(Nc2cc(F)nc(F)c2)nc1C(=O)NC1CCC1(C)C (stereo not shown) [Compound P-4, 6-[(2,6-difluoro-4-pyridyl)amino]-N-(2,2-dimethylcyclobutyl)-3-methoxy-pyridine-2-carboxamide]
≥ 80%: pest or weed control at 200 ppm (Alternaria solani) | pest or weed control at 200 ppm [2] | inhibition at 20 ppm [3] | pest or weed control at 200 ppm [4] | pest or weed control at 200 ppm (Pyrenophora teres) | pest or weed control at 200 ppm [5] | inhibition at 20 ppm (Sclerotinia sclerotiorum) | pest or weed control at 200 ppm [6] | inhibition at 20 ppm [8] | inhibition at 20 ppm [9] | pest or weed control at 200 ppm [10]

COc1ccc(Nc2cc(F)nc(F)c2)nc1C(=O)NC1(C)CCC1 [Compound P-127, 6-[(2,6-difluoro-4-pyridyl)amino]-3-methoxy-N-(1-methylcyclobutyl)pyridine-2-carboxamide]
≥ 80%: pest or weed control at 200 ppm (Alternaria solani) | pest or weed control at 200 ppm [2] | inhibition at 20 ppm [3] | pest or weed control at 200 ppm [4] | pest or weed control at 200 ppm (Pyrenophora teres) | pest or weed control at 200 ppm [5] | inhibition at 20 ppm [8] | inhibition at 20 ppm [9] | pest or weed control at 200 ppm [10]

COc1ccc(Nc2cc(F)nc(F)c2)nc1C(=O)NC1(C(C)(C)C)CCC1 [Compound P-185, N-(1-tert-butylcyclobutyl)-6-[(2,6-difluoro-4-pyridyl)amino]-3-methoxy-pyridine-2-carboxamide]
≥ 80%: pest or weed control at 200 ppm (Alternaria solani) | pest or weed control at 200 ppm [2] | inhibition at 20 ppm [3] | pest or weed control at 200 ppm [4] | pest or weed control at 200 ppm (Pyrenophora teres) | pest or weed control at 200 ppm [5] | inhibition at 20 ppm [9] | pest or weed control at 200 ppm [10]

COc1ccc(Nc2cc(F)cc(F)c2)nc1C(=O)NC(C)C(C)C (stereo not shown) [Compound P-168, 6-(3,5-difluoroanilino)-N-(1,2-dimethylpropyl)-3-methoxy-pyridine-2-carboxamide]
≥ 80%: inhibition at 20 ppm [1] | pest or weed control at 200 ppm [2] | inhibition at 20 ppm (Fusarium culmorum) | inhibition at 20 ppm [3] | pest or weed control at 200 ppm [4] | pest or weed control at 200 ppm (Pyrenophora teres) | inhibition at 20 ppm [7] | inhibition at 20 ppm [8] | inhibition at 20 ppm [9]

COc1ccc(Nc2cc(F)cc(F)c2)nc1C(=O)NC(C)(C)C [Compound P-93, N-tert-butyl-6-(3,5-difluoroanilino)-3-methoxy-pyridine-2-carboxamide]
≥ 80%: inhibition at 20 ppm [1] | pest or weed control at 200 ppm (Alternaria solani) | pest or weed control at 200 ppm [2] | inhibition at 20 ppm [3] | pest or weed control at 200 ppm [4] | pest or weed control at 200 ppm (Pyrenophora teres) | pest or weed control at 200 ppm [5] | pest or weed control at 200 ppm [6] | inhibition at 20 ppm [7] | inhibition at 20 ppm [8] | inhibition at 20 ppm [9] | pest or weed control at 200 ppm [10]

COc1ccc(Nc2cc(F)nc(F)c2)nc1C(=O)NC1(C)CCCC1 [Compound P-109, 6-[(2,6-difluoro-4-pyridyl)amino]-3-methoxy-N-(1-methylcyclopentyl)pyridine-2-carboxamide]
≥ 80%: pest or weed control at 200 ppm (Alternaria solani) | pest or weed control at 200 ppm [2] | inhibition at 20 ppm [3] | pest or weed control at 200 ppm [4] | pest or weed control at 200 ppm (Pyrenophora teres) | pest or weed control at 200 ppm [5] | inhibition at 20 ppm (Sclerotinia sclerotiorum) | inhibition at 20 ppm [8] | inhibition at 20 ppm [9] | pest or weed control at 200 ppm [10]

COc1ccc(Nc2cc(F)c(F)c(F)c2)nc1C(=O)NC(C)(C)C [Compound P-162, N-tert-butyl-3-methoxy-6-(3,4,5-trifluoroanilino)pyridine-2-carboxamide]
≥ 80%: inhibition at 20 ppm [1] | pest or weed control at 200 ppm (Alternaria solani) | pest or weed control at 200 ppm [2] | inhibition at 20 ppm [3] | pest or weed control at 200 ppm [4] | pest or weed control at 200 ppm (Pyrenophora teres) | pest or weed control at 200 ppm [5] | inhibition at 20 ppm (Sclerotinia sclerotiorum) | inhibition at 20 ppm [7] | inhibition at 20 ppm [8] | inhibition at 20 ppm [9] | pest or weed control at 200 ppm [10]

COc1ccc(Nc2ccnc(F)c2)nc1C(=O)NC(C)(C)C [Compound P-156, N-tert-butyl-6-[(2-fluoro-4-pyridyl)amino]-3-methoxy-pyridine-2-carboxamide]
≥ 80%: pest or weed control at 200 ppm [2] | pest or weed control at 200 ppm [4] | pest or weed control at 200 ppm [5] | inhibition at 20 ppm [8] | pest or weed control at 200 ppm [10]

COc1ccc(Nc2cccc(F)c2)nc1C(=O)NC(C)(C)C [Compound P-160, N-tert-butyl-6-(3-fluoroanilino)-3-methoxy-pyridine-2-carboxamide]
≥ 80%: inhibition at 20 ppm [1] | pest or weed control at 200 ppm (Alternaria solani) | pest or weed control at 200 ppm [2] | inhibition at 20 ppm [3] | pest or weed control at 200 ppm [4] | pest or weed control at 200 ppm (Pyrenophora teres) | pest or weed control at 200 ppm [5] | inhibition at 20 ppm (Sclerotinia sclerotiorum) | pest or weed control at 200 ppm [6] | inhibition at 20 ppm [7] | inhibition at 20 ppm [8] | inhibition at 20 ppm [9] | pest or weed control at 200 ppm [10]

COc1ccc(Nc2cc(F)nc(F)c2)nc1C(=O)NC(C)(C)C [Compound P-91, N-tert-butyl-6-[(2,6-difluoro-4-pyridyl)amino]-3-methoxy-pyridine-2-carboxamide]
≥ 80%: pest or weed control at 200 ppm (Alternaria solani) | pest or weed control at 200 ppm [2] | inhibition at 20 ppm [3] | pest or weed control at 200 ppm [4] | pest or weed control at 200 ppm [5] | inhibition at 20 ppm [8] | inhibition at 20 ppm [9] | pest or weed control at 200 ppm [10]
